These are literature values, as cited in patent publication US20150147306A1, “COMPOSITION FOR TREATING A CIRCADIAN RHYTHM DISORDER” (priority 2012, published 2015).

Each structure is given as a SMILES string.

For the data set the following is noted: in humans.

Regarding `COc1ccc2[nH]cc(CCNC(C)=O)c2c1` [melatonin], the “half-life in the serum” value is 35 to 50 min.
